These results are taken from US20240067651A1 (Biohaven Therapeutics Ltd., priority 2019, published 2024).

In one data set the test system is Caco-2 monolayer. As to the kind of experiment: Caco-2 Permeability Assay. It counts as in vitro ADME, human. The essentials:
(§1)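 Caco-2 monolayers cultured 21 days (TEER >600 […]); test article at 10 μM in HBSS/HEPES pH 7.4 transport medium, dosed apical or basolateral, ±Pgp inhibitor. Incubated 90 min at 37 °C; both compartments quantified by LC-MS/MS. Papp (A→B, B→A), efflux ratio and % recovery calculated.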
In general terms: Passage across Caco-2 layers is used to estimate intestinal permeability.

Data set [1] in a line: Stability in Simulated Gastric Fluid (SGF). More on the design: key: % parent compound remaining relative to 0-minute sample. It counts as in vitro ADME. In outline:
(§2)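 Compound at 2 μg/mL final was incubated at 37° C with orbital shaking in SGF containing pepsin (pH 1.2) or SIF containing pancreatin (pH 6.8), sampled from 0 to 60 minutes. Parent remaining was measured by LC-MS/MS relative to the 0-minute sample; half-life came from ln(% remaining) versus time when enough points existed.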

The next data set can be described thus: Plasma Stability. Type of data set: in vitro ADME, human. The essentials:
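Compounds incubated at 1 μM in fresh human plasma for 1 hour at 37° C, then protein-precipitated with acetonitrile/formic acid containing internal standard. Remaining parent measured by LC-MS/MS in triplicate, expressed as percent of control remaining.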

The nature of data set [2]: Stability in Simulated Intestinal Fluid (SIF). It counts as in vitro ADME. On the set-up: key: % parent compound remaining relative to 0-minute sample. In outline:
as §2

A short description of data set [3]: Caco-2 Permeability Assay. It counts as in vitro ADME, human. The conditions noted are these: human, Caco-2, pH 7.4, Caco-2 monolayer. The essentials:
as §1

The mark [4] stands for this setting: simulated gastric fluid, remaining at 1 h.
Where [5] appears, read: simulated intestinal fluid, remaining at 1 h.
[6] abbreviates: % remaining after 1 h in simulated gastric fluid.
Where [7] appears, read: % remaining after 1 h in human plasma.
The mark [8] stands for this setting: % remaining after 1 h in simulated intestinal fluid.

With “1-tert-butyl 2-{4-oxo-1-[2-(propan-2-yloxy)ethyl]-2-sulfanylidene-1H,2H,3H,4H,5H-pyrrolo[3,2-d]pyrimidin-5-yl}methyl (2R)-pyrrolidine-1,2-dicarboxylate [Example 393]”, the “Caco-2 Papp” value in the data set on Caco-2 monolayer (Caco-2 monolayer) came to 0.11 ×10⁻⁶ cm/s. In addition, the SGF in data set [1] (setting [4]) is listed as 99% remaining. Also, the “human Plasma stability” value in the data set “Plasma Stability” (human plasma, remaining at 1 h) was determined as 92% remaining. In data set [2] (setting [5]), the SIF is reported as 94% remaining.

With “5-[{[4-(carbamoyloxy)butoxy]carbon-yl}oxy)methyl]-1-[2-(propan-2-yloxy)ethyl]-2-sulfanylidene-1H,2H,3H,4H,5H-pyrrolo[3,2-d]pyrimidin-4-one [Example 411]”, the “Caco-2 Papp” value in the data set on Caco-2 monolayer (Caco-2 monolayer) is under 0.107 ×10⁻⁶ cm/s. Moreover, in data set [1] (setting [6]), the SGF is on record as 92% remaining. Further, the “human Plasma stability” value in the data set “Plasma Stability” (setting [7]) was found to be 1% remaining. The SIF in data set [2] (setting [8]) is 22% remaining.

Turning to “5-{({2-[2-(carbamoyloxy)ethoxy]ethoxy}car-bonyl)oxy]methyl}-1-[2-(propan-2-yloxy)ethyl]-2-sulfanylidene-1H,2H,3H,4H,5H-pyrrolo[3,2-d]pyrimidin-4-one [Example 402]”, the “Caco-2 Papp” value with Caco-2 monolayer (Caco-2 monolayer) turned out to be 24.6 ×10⁻⁶ cm/s. Further, the SGF in data set [1] (setting [6]) is given as 99% remaining. In “Plasma Stability” (setting [7]), the “human Plasma stability” value is recorded as 99% remaining. Also, the SIF in data set [2] (setting [8]) is 89% remaining.

Consider “5-{[2-({[(5-{[(2R)-2-{[(tert-butoxy)carbonyl]amino}-4-methylpentanoyl]oxy}penta-noyl)oxy]methyl}sulfanyl)-4-oxo-1-[2-(propan-2-yloxy)ethyl]-1H,4H,5H-pyrrolo[3,2-d]pyrimidin-5-yl]methoxy}-5-oxopentyl (2R)-2-{[(tert-butoxy)carbonyl]amino}-4-methylpentanoate [Example 348]”, for which the “Caco-2 Papp” value in the data set with Caco-2 monolayer (Caco-2 monolayer) is under 0.0965 ×10⁻⁶ cm/s. Moreover, the SGF in data set [1] (setting [4]) is listed as 88% remaining. Also, the “human Plasma stability” value in “Plasma Stability” (human plasma, remaining at 1 h) stood at 33% remaining. Also, the SIF in data set [2] (setting [5]) is 20% remaining.

Take “5-{[2-({[(5-{[(2S)-2-{[(tert-butoxy)carbonyl]amino}-4-methylpentanoyl]oxy}penta-noyl)oxy]methyl}sulfanyl)-4-oxo-1-[2-(propan-2-yloxy)ethyl]-1H,4H,5H-pyrrolo[3,2-d]pyrimidin-5-yl]methoxy}-5-oxopentyl (2S)-2-{[(tert-butoxy)carbonyl]amino}-4-methylpentanoate [Example 343]”: the “Caco-2 Papp” value with Caco-2 monolayer (Caco-2) was determined as 4.67 ×10⁻⁶ cm/s. In addition, the SGF in data set [1] (% remaining @ 1 h) was 82% remaining. In addition, the “human Plasma stability” value in “Plasma Stability” (% remaining @ 1 h) turned out to be 1% remaining. In data set [2] (% remaining @ 1 h), the SIF is 29% remaining.

With “5-{[({2-[2-(2-{[(tert-butoxy)carbonyl]amino}ethoxy)eth-oxy]ethoxy}carbonyl)oxy]methyl}-1-[2-(propan-2-yloxy)ethyl]-2-sulfanylidene-1H,2H,3H,4H,5H-pyrrolo[3,2-d]pyrimidin-4-one [Example 370]”, in the data set with Caco-2 monolayer (Caco-2 monolayer), the “Caco-2 Papp” value stood at 1.54 ×10⁻⁶ cm/s. For the same compound, the SGF in data set [1] (setting [4]) was 99% remaining. The “human Plasma stability” value in “Plasma Stability” (human plasma, remaining at 1 h) was 1% remaining. Besides, the SIF in data set [2] (setting [5]) was 35% remaining.

Regarding “15-[2-(propan-2-yloxy)ethyl]-14-sulfanylidene-3,5,9,11-tetraoxa-1,13,15-triazatricyclo[11.5.2.0^{16,19}]icosa 16(19),17-diene-4,10,20-trione [Example 409]”, the “Caco-2 Papp” value in the data set with Caco-2 monolayer (Caco-2 monolayer) is under 0.107 ×10⁻⁶ cm/s. Moreover, the SGF in data set [1] (setting [6]) was 94% remaining. In the data set “Plasma Stability” (setting [7]), the “human Plasma stability” value came out at 4% remaining. For the same compound, the SIF in data set [2] (setting [8]) is 28% remaining.

Take “17-[2-(propan-2-yloxy)ethyl]-16-sulfanylidene-3,5,8,11,13-pentaoxa-1,15,17-triazatricyclo[13.5.2.0^{18,21}]docosa-18(21),19-diene-4,12,22-trione [Example 404]”: in the data set with Caco-2 monolayer (Caco-2 monolayer), the “Caco-2 Papp” value was 5.08 ×10⁻⁶ cm/s. The SGF in data set [1] (setting [6]) was 92% remaining. In addition, the “human Plasma stability” value in “Plasma Stability” (setting [7]) is recorded as 77% remaining. In addition, the SIF in data set [2] (setting [8]) is reported as 86% remaining.

For the compound `CC(C)OCCn1c(=S)n(COC(=O)[C@H](C)N)c(=O)c2c1ccn2CO.O=C(O)C(F)(F)F` [Example 290, trifluoroacetic acid [5-(hydroxymethyl)-4-oxo-1-[2-(propan-2-yloxy)ethyl]-2-sulfanylidene-1H,2H,3H,4H,5H-pyrrolo[3,2-d]pyrimidin-3-yl]methyl (2S)-2-aminopropanoate], in the data set on Caco-2 monolayer, the “Caco-2 Papp (nm/s)” value is given as “unstable”. For the same compound, the SGF in data set [1] (% remaining @ 1 h) is on record as 98% @ 1 h. For the same compound, the SIF in data set [2] (% remaining @ 1 h) was 10% @ 1 h.

Usually Papp stands for the rate of passage across a membrane or cell layer, normalised by area and donor concentration. For `CC(C)OCCn1c(SCOC(=O)CCCOC(=O)[C@H](N)Cc2ccccc2)nc(=O)c2c1ccn2COC(=O)CCCOC(=O)[C@H](N)Cc1ccccc1.O=C(O)C(F)(F)F.O=C(O)C(F)(F)F` [Example 364, bis(trifluoroacetic acid) [(5-{[(4-{[(2R)-2-amino-3-phenylpropanoyl]oxy}butanoyl)oxy]methyl}-4-oxo-1-[2-(propan-2-yloxy)ethyl]-1H,4H,5H-pyrrolo[3,2-d]pyrimidin-2-yl)sulfanyl]methyl 4-{[(2R)-2-amino-3-phenylpropanoyl]oxy}butanoate], in data set [3], the apparent permeability coefficient (Papp) at 90 min, 10 µM stood at 0.277 ×10⁻⁶ cm/s. The SGF in data set [1] (setting [4]) is on record as 47% remaining. Moreover, in “Plasma Stability” (human plasma, remaining at 1 h), the “human Plasma stability” value was 31% remaining. Further, in data set [2] (setting [5]), the SIF is reported as 1% remaining.

`CC(C)OCCn1c(=S)n(COC(=O)CCCOC(=O)[C@@H](Cc2ccccc2)NC(=O)OC(C)(C)C)c(=O)c2c1ccn2COC(=O)CCCOC(=O)[C@@H](Cc1ccccc1)NC(=O)OC(C)(C)C` [Example 365, (3-{[(4-{[(2R)-2-{[(tert-butoxy)carbonyl]amino}-3-phenylpropanoyl]oxy}butanoyl)oxy]methyl}-4-oxo-1-[2-(propan-2-yloxy)ethyl]-2-sulfanylidene-1H,2H,3H,4H,5H-pyrrolo[3,2-d]pyrimidin-5-yl)methyl 4-{[(2R)-2-{[(tert-butoxy)carbonyl]amino}-3-phenylpropanoyl]oxy}butanoate]: in data set [3], the Papp at 90 min, 10 µM is under 0.263 ×10⁻⁶ cm/s. Besides, the SGF in data set [1] (setting [4]) is 85% remaining. Further, the “human Plasma stability” value in “Plasma Stability” (human plasma, remaining at 1 h) came out at 11% remaining. Moreover, the SIF in data set [2] (setting [5]) is given as 5% remaining.

Regarding `CSCC[C@@H](N)C(=O)OCCC(=O)OCn1ccc2c1c(=O)[nH]c(=S)n2CCOC(C)C.O=C(O)C(F)(F)F` [Example 366, trifluoroacetic acid 3-oxo-3-({4-oxo-1-[2-(propan-2-yloxy)ethyl]-2-sulfanylidene-1H,2H,3H,4H,5H-pyrrolo[3,2-d]pyrimidin-5-yl}methoxy)propyl (2R)-2-amino-4-(methylsulfanyl)butanoate], the apparent permeability (Papp) at 90 min, 10 µM in data set [3] is under 0.76 ×10⁻⁶ cm/s. Besides, the SGF in data set [1] (setting [4]) is 76% remaining. Further, in “Plasma Stability” (human plasma, remaining at 1 h), the “human Plasma stability” value amounted to 74% remaining. For the same compound, the SIF in data set [2] (setting [5]) was 2% remaining.

In turn, `CC(C)C[C@H](N)C(=O)OCCC(=O)OCn1ccc2c1c(=O)[nH]c(=S)n2CCOC(C)C.O=C(O)C(F)(F)F` [Example 367, trifluoroacetic acid 3-oxo-3-({4-oxo-1-[2-(propan-2-yloxy)ethyl]-2-sulfanylidene-1H,2H,3H,4H,5H-pyrrolo [3,2-d]pyrimidin-5-yl}methoxy)propyl (2S)-2-amino-4-methylpentanoate] registered a Papp at 90 min, 10 µM in data set [3] of under 0.108 ×10⁻⁶ cm/s. The SGF in data set [1] (setting [4]) was 100% remaining. Besides, the “human Plasma stability” value in “Plasma Stability” (human plasma, remaining at 1 h) came out at 1% remaining. In data set [2] (setting [5]), the SIF is 0% remaining.

In data set [3], `CC(C)C[C@@H](N)C(=O)OCCC(=O)OCn1ccc2c1c(=O)[nH]c(=S)n2CCOC(C)C.O=C(O)C(F)(F)F` [Example 368, trifluoroacetic acid 3-oxo-3-({4-oxo-1-[2-(propan-2-yloxy)ethyl]-2-sulfanylidene-1H,2H,3H,4H,5H-pyrrolo[3,2-d]pyrimidin-5-yl}methoxy)propyl (2R)-2-amino-4-methylpentanoate] showed a Papp at 90 min, 10 µM of 0.12 ×10⁻⁶ cm/s. In addition, the SGF in data set [1] (setting [4]) is 100% remaining. In addition, the “human Plasma stability” value in the data set “Plasma Stability” (human plasma, remaining at 1 h) is 1% remaining. Also, the SIF in data set [2] (setting [5]) is recorded as 1% remaining.

On to `CC(C)OCCn1c(SCOC(=O)OCCOCCNC(=O)OC(C)(C)C)nc(=O)c2[nH]ccc21` [Example 369, 2-{[{{[2-(2-{[(tert-butoxy)carbonyl]amino}ethoxy)eth-oxy]carbonyl}oxy)methyl]sulfanyl}-1-[2-(propan-2-yloxy)ethyl]-1H,4H,5H-pyrrolo[3,2-d]pyrimidin-4-one], for which the Papp at 90 min, 10 µM in data set [3] is under 0.107 ×10⁻⁶ cm/s. The SGF in data set [1] (setting [4]) is 89% remaining. Also, the “human Plasma stability” value in the data set “Plasma Stability” (human plasma, remaining at 1 h) stood at 1% remaining. Further, the SIF in data set [2] (setting [5]) is listed as 1% remaining.

Take `CSCC[C@@H](NC(=O)OC(C)(C)C)C(=O)NCCOCCOC(=O)OCn1ccc2c1c(=O)[nH]c(=S)n2CCOC(C)C` [Example 389, (2R)-2-{[(tert-butoxy)carbonyl]amino}-4-(methylsulfanyl)-N-[2-(2-{[{{4-oxo-1-[2-(propan-2-yloxy)ethyl]-2-sulfanylidene-1H,2H,3H,4H,5H-pyrrolo[3,2-d]pyrimidin-5-yl}methoxy)carbonyl]oxy}ethoxy)eth-yl]butanamide]: in data set [3], the Papp at 90 min, 10 µM was found to be 5.94 ×10⁻⁶ cm/s. For the same compound, in data set [1] (setting [4]), the SGF is recorded as 98% remaining. Moreover, the “human Plasma stability” value in “Plasma Stability” (human plasma, remaining at 1 h) is recorded as 1% remaining. Also, the SIF in data set [2] (setting [5]) is reported as 60% remaining.
